Results: patent publication US12662451B2, “Chemical compounds and uses thereof” (GLAXOSMITHKLINE INTELLECTUAL PROPERTY (NO.4) LIMITED, priority 2023, dated 2026)
Counter-ions that a name gives are not always drawn.

Experiments:
[1] = biological target: T1, recombinant full-length WRN protein (1-1432) (Homo sapiens, UniProt Q14191); assay: WRN unwinding activity, fluorogenic 384-well assay (Example A); format: biochemical; details: WRN unwinding activity, 4 hr; Table 2; read-out: 4 hr UNW pIC50 (converted)
T1 construct: recombinant full-length WRN protein (1-1432)
T1 sequence (Q14191 whole entry): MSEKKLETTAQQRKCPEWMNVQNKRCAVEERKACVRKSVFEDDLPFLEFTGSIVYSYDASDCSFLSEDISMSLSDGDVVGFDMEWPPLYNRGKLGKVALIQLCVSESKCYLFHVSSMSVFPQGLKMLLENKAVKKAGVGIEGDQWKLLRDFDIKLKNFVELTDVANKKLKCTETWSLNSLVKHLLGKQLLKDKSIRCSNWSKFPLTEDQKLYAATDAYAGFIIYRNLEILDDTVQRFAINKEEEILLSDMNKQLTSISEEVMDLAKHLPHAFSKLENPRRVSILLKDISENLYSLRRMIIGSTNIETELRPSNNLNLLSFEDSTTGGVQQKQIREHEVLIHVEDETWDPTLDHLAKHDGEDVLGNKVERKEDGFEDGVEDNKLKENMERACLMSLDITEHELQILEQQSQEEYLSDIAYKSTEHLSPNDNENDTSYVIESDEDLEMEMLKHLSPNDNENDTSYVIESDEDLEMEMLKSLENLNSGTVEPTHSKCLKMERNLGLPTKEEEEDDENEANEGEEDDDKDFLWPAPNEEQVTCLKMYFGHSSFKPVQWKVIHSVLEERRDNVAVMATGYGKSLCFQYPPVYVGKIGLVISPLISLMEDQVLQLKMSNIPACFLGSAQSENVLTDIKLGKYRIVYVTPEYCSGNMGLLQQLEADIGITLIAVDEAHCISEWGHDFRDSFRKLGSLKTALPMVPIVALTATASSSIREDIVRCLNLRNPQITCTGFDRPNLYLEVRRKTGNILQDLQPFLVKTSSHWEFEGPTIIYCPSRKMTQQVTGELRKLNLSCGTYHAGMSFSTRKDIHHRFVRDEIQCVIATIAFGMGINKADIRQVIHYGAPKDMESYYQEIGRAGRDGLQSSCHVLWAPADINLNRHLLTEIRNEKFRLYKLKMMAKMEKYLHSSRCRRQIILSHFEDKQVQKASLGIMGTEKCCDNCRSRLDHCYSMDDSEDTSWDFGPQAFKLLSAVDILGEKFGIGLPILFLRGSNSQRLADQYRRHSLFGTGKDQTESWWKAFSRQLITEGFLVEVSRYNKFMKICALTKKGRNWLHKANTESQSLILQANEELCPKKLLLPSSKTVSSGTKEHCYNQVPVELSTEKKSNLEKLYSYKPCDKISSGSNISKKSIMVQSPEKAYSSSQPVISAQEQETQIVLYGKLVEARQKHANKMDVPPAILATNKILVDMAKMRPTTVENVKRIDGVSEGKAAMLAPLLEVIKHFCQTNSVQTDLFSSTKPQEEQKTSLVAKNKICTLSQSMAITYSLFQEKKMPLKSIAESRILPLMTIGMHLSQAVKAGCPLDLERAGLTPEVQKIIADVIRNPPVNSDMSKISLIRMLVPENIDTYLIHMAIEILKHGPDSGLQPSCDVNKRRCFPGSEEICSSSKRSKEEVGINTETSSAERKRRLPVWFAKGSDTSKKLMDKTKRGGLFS
Method in brief: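 Read-out is end-point unwinding of a fluorophore/quencher duplex (ex 525, em 598 nm) after 60 min with 200 μM ATP and 12 nM DNA (2× stocks), EDTA stop. Compound first sat 4 h with 200 pM WRN (2× stock) in pH 8.0 Tris buffer; four-parameter fit gives pIC50.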

[2] = system: SW48 human colorectal cancer cells (MSI-H cancer cells); assay: SW48 cell viability, CellTiter-Glo, 120 hours (Example B); details: Table 2; for CC50: Homo sapiens, SW48, 120 h, read-out: SW48 pCC50, SW48 cell viability, 120 hours incubation (converted)

SMILES	IC50 [1] [nM]	CC50 [2] [nM]	SW48 pCC50 ([2]; SW48 cell viability, 120 hours incubation)
Cc1nc2cc(S(=O)(=O)N(C)c3ccc([C@H]4CCC[C@@H](C(=O)Nc5ccc(C(F)(F)F)cc5F)[C@@H]4C(=O)O)cc3)cc([C@@H]3CCCNC3)c2n1C (single isomer, unassigned) [Example 268, (1R,2R,6S)-2-((2-fluoro-4-(trifluoromethyl)phenyl)carbamoyl)-6-(4-((N,1,2-trimethyl-7-((S*)-piperidin-3-yl)-1H-benzo[d]imidazole)-5-sulfonamido)phenyl)cyclohexane-1-carboxylic acid hydrochloride]	0.794	15800	
Cc1nc2cc(S(=O)(=O)N3CCOc4cc([C@H]5CCC[C@@H](C(=O)Nc6ccc(C(F)(F)F)cc6F)[C@@H]5C(=O)O)ccc43)ccc2n1C (single isomer, unassigned) [Example 241]	5.01	1260	
O=C(O)[C@@H]1[C@@H](c2ccc(-c3ccco3)cc2)CCC[C@H]1C(=O)Nc1ccc(C(F)(F)F)cc1F [Example 9, (1R,2R,6S)-2-((2-fluoro-4-(trifluoromethyl)phenyl)carbamoyl)-6-(4-(furan-2-yl)phenyl)cyclohexane-1-carboxylic acid]	794	25100	
CC(=O)N(C)[C@@H]1C[C@H](C(=O)Nc2ccc(C(F)(F)F)cc2F)[C@@H](C(=O)O)[C@H](c2ccc(N(C)S(=O)(=O)c3ccc4c(c3)nc(C)n4C)cc2)C1 (stereo in doubt) [Example 291, rel-(1R,2R,4R,6S)-2-((2-fluoro-4-(trifluoromethyl)phenyl)carbamoyl)-4-(N-methylacetamido)-6-(4-((N,1,2-trimethyl-1H-benzo[d]imidazole)-5-sulfonamido)phenyl)cyclohexane-1-carboxylic acid]	31.6	12600	
Cc1nc2cc(S(=O)(=O)N(C)c3ccc([C@@H]4C[C@H](OC[C@@H]5CCOC5)C[C@H](C(=O)Nc5ccc(C(F)(F)F)cc5F)[C@H]4C(=O)O)cc3)ccc2n1C (stereo in doubt) [Example 319, (1R*,2R*,4R*,6S*)-2-((2-fluoro-4-(trifluoromethyl)phenyl)carbamoyl)-4-(((R)-tetrahydrofuran-3-yl)methoxy)-6-(4-((N,1,2-trimethyl-1H-benzo[d]imidazole)-5-sulfonamido)phenyl)cyclohexane-1-carboxylic acid]	316	12600	
[2H]C([2H])([2H])O[C@@H]1C[C@H](c2ccc(N(C)S(=O)(=O)c3ccc4c(c3)nc(C)n4C)cc2)[C@@H](C(=O)O)[C@H](C(=O)Nc2ccc(C(F)(F)F)cc2F)C1 (single isomer, unassigned) [Example 147]	79.4	12600	
Cc1nc2cc(S(=O)(=O)N(C)c3ccc([C@H]4CCC[C@@H](C(=O)Nc5ccc(C(F)(F)F)cc5F)[C@@H]4C(=O)O)cc3)ccc2[nH]1 (single isomer, unassigned) [Example 92]	1.58	794	
Cc1nc2cc(S(=O)(=O)N(C)c3ccc([C@H]4CCC[C@@H](CO[C@H]5CC[C@H](C(F)(F)F)CC5)[C@@H]4C(=O)O)cc3)ccc2n1C [Example 215, (1R,2R,6S)-2-((((1r,4R)-4-(trifluoromethyl)cyclohexyl)oxy)methyl)-6-(4-((N,1,2-trimethyl-1H-benzo[d]imidazole)-5-sulfonamido)phenyl)cyclohexane-1-carboxylic acid]	79.4	20000	
Cc1nc2cc(S(=O)(=O)N(C)c3cnc([C@@H]4CCC[C@H](C(=O)Nc5ccc(C(F)(F)F)cc5F)[C@H]4C(=O)O)cn3)ccc2n1C (relative stereo) [Example 165, rel-(1R,2R,6S)-2-((2-fluoro-4-(trifluoromethyl)phenyl)carbamoyl)-6-(5-((N,1,2-trimethyl-1H-benzo[d]imidazole)-5-sulfonamido)pyrazin-2-yl)cyclohexane-1-carboxylic acid]	25.1	25100	
Cc1nc2cc(S(=O)(=O)N(C)c3ccc([C@H]4CCC[C@@H](C(=O)Nc5ccc(C(C)C)cc5)[C@@H]4C(=O)O)cc3)ccc2n1C (racemic) [Example 78, rac-(1R,2R,6S)-2-((4-isopropylphenyl)carbamoyl)-6-(4-((N,1,2-trimethyl-1H-benzo[d]imidazole)-5-sulfonamido)phenyl)cyclohexane-1-carboxylic acid]	2	1000	
Cc1nc2cc(S(=O)(=O)N(C)c3ccc([C@H]4CCC[C@@H](C(=O)Nc5ccc(C(F)(F)F)cc5F)[C@@H]4C(=O)O)cc3C#CC(C)(C)O)ccc2n1C [Example 167, (1R,2R,6S)-2-((2-fluoro-4-(trifluoromethyl)phenyl)carbamoyl)-6-(3-(3-hydroxy-3-methylbut-1-yn-1-yl)-4-((N,1,2-trimethyl-1H-benzo[d]imidazole)-5-sulfonamido)phenyl)cyclohexane-1-carboxylic acid]	5.01	20000	
CN(c1ccc([C@H]2CCC[C@@H](C(=O)Nc3ccc(C(F)(F)F)cc3F)[C@@H]2C(=O)O)cc1)S(=O)(=O)c1c(Cl)cc(C(F)(F)F)cc1Cl [Example 104, (1R,2S,6R)-2-(4-((2,6-dichloro-N-methyl-4-(trifluoromethyl)phenyl)sulfonamido)phenyl)-6-((2-fluoro-4-(trifluoromethyl)phenyl)carbamoyl)cyclohexane-1-carboxylic acid]	39.8	3980	
Cc1cc(C)c(S(=O)(=O)N(C)c2ccc([C@H]3CCC[C@@H](C(=O)Nc4ccc(C(F)(F)F)cc4F)[C@@H]3C(=O)O)cc2)c(C)c1 [Example 103, (1R,2R,6S)-2-((2-fluoro-4-(trifluoromethyl)phenyl)carbamoyl)-6-(4-((N,2,4,6-tetramethylphenyl)sulfonamido)phenyl)cyclohexane-1-carboxylic acid]	1.58	12600	
Cc1nc2cc(S(=O)(=O)N(c3ccc([C@H]4CCC[C@@H](C(=O)Nc5ccc(C(F)(F)F)cc5F)[C@@H]4C(=O)O)cc3)C3CC3)ccc2n1C [Example 238, (1R,2S,6R)-2-(4-((N-cyclopropyl-1,2-dimethyl-1H-benzo[d]imidazole)-5-sulfonamido)phenyl)-6-((2-fluoro-4-(trifluoromethyl)phenyl)carbamoyl)cyclohexane-1-carboxylic acid]	3.98	2000	
CN(c1ccc([C@H]2CCC[C@@H](C(=O)Nc3ccc(C(F)(F)F)cc3F)[C@@H]2C(=O)O)cc1)S(=O)(=O)c1ccc2[nH]cnc2c1 (single isomer, unassigned) [Example 86]	1.58	2510	
CN(c1ccc([C@H]2CCC[C@@H](C(=O)Nc3ccc(C(F)(F)F)cc3F)[C@@H]2C(=O)O)cc1)S(=O)(=O)c1ccc2c(c1)CN(C(=O)C(F)(F)F)CC2 [Example 108, (1R,2R,6S)-2-((2-fluoro-4-(trifluoromethyl)phenyl)carbamoyl)-6-(4-((N-methyl-2-(2,2,2-trifluoroacetyl)-1,2,3,4-tetrahydroisoquinoline)-7-sulfonamido)phenyl)cyclohexane-1-carboxylic acid]	3.16	2000	
Cc1nc2cc(S(=O)(=O)N(C)c3ccc([C@H]4CCC[C@@H](C(=O)N[C@H]5CC[C@H](C(C)(C)F)CC5)[C@@H]4C(=O)O)cc3)ccc2n1C [Example 182, (1R,2R,6S)-2-(((1r,4R)-4-(2-fluoropropan-2-yl)cyclohexyl)carbamoyl)-6-(4-((N, 1,2-trimethyl-1H-benzo[d]imidazole)-5-sulfonamido)phenyl)cyclohexane-1-carboxylic acid]	2.51	1580	
Cc1nc2cc(S(=O)(=O)N(C)c3ccc([C@H]4C[C@](C)(O)C[C@@H](C(=O)Nc5ccc(C(F)(F)F)cc5F)[C@@H]4C(=O)O)cc3)ccc2n1C (racemic) [Example 357, rac-(1R,2R,4S,6S)-2-((2-fluoro-4-(trifluoromethyl)phenyl)carbamoyl)-4-hydroxy-4-methyl-6-(4-((N,1,2-trimethyl-1H-benzo[d]imidazole)-5-sulfonamido)phenyl)cyclohexane-1-carboxylic acid]	10	1000	
CN(c1ccc([C@H]2CCC[C@@H](C(=O)Nc3ccc(C(F)(F)F)cc3F)[C@@H]2C(=O)O)cc1)S(=O)(=O)c1ccc(C2CCN(C(=O)OC(C)(C)C)CC2)cc1 [Example 115, (1R,2S,6R)-2-(4-((3-(1-(tert-butoxycarbonyl)piperidin-4-yl)-N-methylphenyl)sulfonamido)phenyl)-6-((2-fluoro-4-(trifluoromethyl)phenyl)carbamoyl)cyclohexane-1-carboxylic acid]	5.01	1260	
CN(c1ccc([C@H]2CCC[C@@H](C(=O)Nc3ccc(C(F)(F)F)cc3F)[C@@H]2C(=O)O)cc1)S(=O)(=O)c1cccnc1 [Example 95, (1R,2R,6S)-2-((2-fluoro-4-(trifluoromethyl)phenyl)carbamoyl)-6-(4-(N-methylpyridine-3-sulfonamido)phenyl)cyclohexane-1-carboxylic acid]	2.51	3160	
Cc1nc2cc(S(=O)(=O)N(C)c3ccc([C@H]4CCC[C@@H](C(=O)Nc5ccc(C(F)(F)F)cc5F)[C@@H]4C(=O)O)cc3)ccc2n1C (single isomer, unassigned) [Example 84]	158		5.3
C=CS(=O)(=O)N(C)c1ccc([C@H]2CCC[C@@H](C(=O)Nc3ccc(C(F)(F)F)cc3F)[C@@H]2C(=O)O)cc1 [Example 135, (1R,2R,6S)-2-((2-fluoro-4-(trifluoromethyl)phenyl)carbamoyl)-6-(4-(N-methylvinylsulfonamido)phenyl)cyclohexane-1-carboxylic acid]	2.51	2510	
